According to patent publication US20200306377A1, “METHODS FOR ENHANCING 5-AMINOLEVULINIC ACID-BASED MEDICAL IMAGING AND PHOTOTHERAPY” (priority 2017, published 2020):

Assays:
Assay type in all cases: cell-based
[1] = system: SKBR3 human breast cancer cells; test: Comparison of 5-ALA intracellular uptake, fluorescence microscopy; conditions: incubation 3, 5, 16 h, QDs about 50 ug/mL, free 5-ALA 200 uM
Description: SKBR3 human breast cancer cells are cultivated in 6 well plates supplied with glass coverslips using McCoy's 5a medium from ATCC (3 mL per well). […] solution in deionized H2O at 100 mM was prepared and added when required at a final concentration of 200 uM (6 uL per well). After the predetermined incubation time, cells are fixed using the following protocol. The medium was removed and the cells gently rinsed with PBS buffer (2 mL per well), two mL fixation medium (3.7% formaldehyde in PBS) was added followed by incubation at room temperature (RT) for 15 min. The fixation medium was removed and fresh PBS was added to gently rinse the cells. The coverslips were removed from the wells and mounted on glass slides. […] Within each study, all microscopic settings (filter, light intensity, exposure time, and magnification) were identical.

[2] = system: SKBR3 human breast cancer cells; test: Resistance to photo-bleaching after uptake and irradiation; conditions: after uptake, 1 minute of irradiation
Description: A 5-ALA solution in deionized H2O at 100 mM was prepared and added when required at a final concentration of 200 uM (6 uL per well). After the predetermined incubation time, cells are fixed using the following protocol. The medium was removed and the cells gently rinsed with PBS buffer (2 mL per well), two mL fixation medium (3.7% formaldehyde in PBS) was added followed by incubation at room temperature (RT) for 15 min. The fixation medium was removed and fresh PBS was added to gently rinse the cells. The coverslips were removed from the wells and mounted on glass slides. […] Within each study, all microscopic settings (filter, light intensity, exposure time, and magnification) were identical. Microscopic images of the cells after treatment with various types of QDs and/or 5-ALA are shown in FIGS. 2A-2L through FIGS. 4A-4K.

[3] = system: normal human fibroblast cells (HFF); test: Labeling of normal fibroblast cells; conditions: 16 hrs, QD 50 μg/mL, free 5-ALA 0.2 mM

NCC(=O)CCC(=O)O [free 5-ALA, 5-Aminolevulinic acid]
emission at 630 nm [1]: weaker emission
photo-bleaching [2]: rapid photo-bleaching and signal disappearance
labeling of normal cells [3]: lack of labeling
